Source: ChEMBL document CHEMBL1201862, “PubChem BioAssay data set” (2004)
Active and inactive are the calls of the source. Cut-off read from the data, not from the text of the source, for most assays here: actives have a measured EC50 and inactives only a lower limit.

Legend:
[1] = target: Beta Lactamase (Pseudomonas aeruginosa, UniProt Q932Y6); experiment: BLA reporter interference, concentration series – BLA reporter cells, FRET fluorescence, artefact control for TLR9-MyD88 binding inhibitor project, dose response (AID 588341); type: cell-based;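 note: cell based assay in CHO-K1 cells stably expressing beta-lactamase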
Chain of Beta Lactamase (Q932Y6 whole entry, the tested form may be a part): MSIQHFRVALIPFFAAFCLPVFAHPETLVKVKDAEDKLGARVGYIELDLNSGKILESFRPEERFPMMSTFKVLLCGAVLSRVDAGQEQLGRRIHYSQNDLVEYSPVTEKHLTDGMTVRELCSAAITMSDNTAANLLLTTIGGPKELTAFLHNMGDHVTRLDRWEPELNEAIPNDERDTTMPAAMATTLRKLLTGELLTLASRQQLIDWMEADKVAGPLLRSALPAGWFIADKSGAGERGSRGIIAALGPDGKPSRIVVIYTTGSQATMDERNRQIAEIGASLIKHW

[2] = tested on: CHO; experiment: CHO cell viability loss, potency – luminescence, cytotoxicity control for TLR9-MyD88 binding inhibitor project, dose response (AID 588339); type: functional, cell-based, hamster; settings: Cricetulus griseus;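 note: CHO cells stably coexpressing TLR9 and MyD88 fusions from primary screen; compound exposure lasted 48 hours before viability readout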
[3] = NIH-3T3 fibroblast cytotoxicity, dose response, cytotoxicity control, cell-based, fluorescence, Alamar Blue, secondary assay (AID 2327); type: functional;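 note: NIH-3T3 mouse fibroblasts cultured with fluconazole at 8 µg/mL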
[4] = target: ATP-dependent molecular chaperone HSP82 (Candida albicans (strain WO-1) (Yeast), UniProt C4YTQ8); experiment: steroid-induced GRE reporter decrease in yeast – S. cerevisiae, luminescence, Hsp90 inhibitor project, dose response (AID 2400); type: functional, cell-based;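 note: beta-galactosidase luminescence from glucocorticoid response element reporter as proxy for Hsp90 function; inhibitor potency where signal loss means Hsp90 inhibition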
Chain of ATP-dependent molecular chaperone HSP82 (C4YTQ8 whole entry): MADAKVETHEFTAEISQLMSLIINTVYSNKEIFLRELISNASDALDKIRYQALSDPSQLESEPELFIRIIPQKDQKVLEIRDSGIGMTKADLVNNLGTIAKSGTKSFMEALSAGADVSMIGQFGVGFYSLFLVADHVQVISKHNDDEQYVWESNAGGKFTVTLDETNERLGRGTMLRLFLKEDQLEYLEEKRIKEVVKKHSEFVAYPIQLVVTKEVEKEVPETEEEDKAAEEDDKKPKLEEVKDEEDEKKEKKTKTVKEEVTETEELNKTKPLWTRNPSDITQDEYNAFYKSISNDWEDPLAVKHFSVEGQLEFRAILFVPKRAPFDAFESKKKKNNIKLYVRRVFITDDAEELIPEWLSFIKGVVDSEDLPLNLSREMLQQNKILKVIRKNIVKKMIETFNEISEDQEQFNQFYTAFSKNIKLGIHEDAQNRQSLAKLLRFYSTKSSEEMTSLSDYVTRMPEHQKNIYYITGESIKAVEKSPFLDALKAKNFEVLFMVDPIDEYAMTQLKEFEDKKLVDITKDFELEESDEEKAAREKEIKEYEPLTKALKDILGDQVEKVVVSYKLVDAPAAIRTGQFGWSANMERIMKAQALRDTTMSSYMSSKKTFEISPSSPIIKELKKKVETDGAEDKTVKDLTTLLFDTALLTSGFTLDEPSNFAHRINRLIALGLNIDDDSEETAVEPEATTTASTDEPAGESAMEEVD

[5] = fluconazole-exposed Candida albicans growth modulators – fluorescence, retest, confirmation (AID 2467); type: functional, cell-based
[6] = target: NACHT, LRR and PYD domains-containing protein 3 (Homo sapiens, UniProt Q96P20); experiment: NALP3 inhibitors in yeast, dose response, luminescent (AID 488799); type: functional
Chain of NACHT, LRR and PYD domains-containing protein 3 (Q96P20 whole entry, the tested form may be a part): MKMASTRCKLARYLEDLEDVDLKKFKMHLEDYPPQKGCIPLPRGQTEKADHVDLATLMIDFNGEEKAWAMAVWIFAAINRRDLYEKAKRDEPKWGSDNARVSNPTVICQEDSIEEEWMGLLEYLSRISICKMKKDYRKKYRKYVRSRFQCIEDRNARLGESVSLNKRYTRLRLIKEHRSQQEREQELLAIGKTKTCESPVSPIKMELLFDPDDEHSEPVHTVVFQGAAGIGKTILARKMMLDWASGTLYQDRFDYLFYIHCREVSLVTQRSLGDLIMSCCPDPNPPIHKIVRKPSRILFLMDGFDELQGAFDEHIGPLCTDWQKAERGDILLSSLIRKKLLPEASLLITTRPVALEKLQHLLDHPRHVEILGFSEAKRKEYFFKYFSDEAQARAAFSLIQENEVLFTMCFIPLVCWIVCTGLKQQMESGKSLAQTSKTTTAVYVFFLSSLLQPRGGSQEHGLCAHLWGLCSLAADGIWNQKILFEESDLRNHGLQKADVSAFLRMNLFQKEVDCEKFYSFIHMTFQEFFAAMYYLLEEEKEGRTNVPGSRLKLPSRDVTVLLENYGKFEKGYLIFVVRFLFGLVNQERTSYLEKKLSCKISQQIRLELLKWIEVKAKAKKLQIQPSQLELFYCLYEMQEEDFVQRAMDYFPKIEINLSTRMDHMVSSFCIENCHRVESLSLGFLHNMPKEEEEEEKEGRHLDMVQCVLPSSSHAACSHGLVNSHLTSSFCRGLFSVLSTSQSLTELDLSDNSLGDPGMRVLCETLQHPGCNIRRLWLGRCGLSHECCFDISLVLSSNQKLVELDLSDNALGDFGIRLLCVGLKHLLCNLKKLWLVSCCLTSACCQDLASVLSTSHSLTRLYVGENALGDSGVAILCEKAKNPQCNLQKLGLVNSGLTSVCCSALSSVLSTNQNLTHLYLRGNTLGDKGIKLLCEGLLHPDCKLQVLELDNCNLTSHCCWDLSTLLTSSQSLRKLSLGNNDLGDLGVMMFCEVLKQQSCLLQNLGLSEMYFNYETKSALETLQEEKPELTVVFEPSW

[7] = target: Serine/threonine-protein phosphatase (Candida dubliniensis (strain CD36 / CBS 7987 / NCPF 3949 / NRRLY-17841) (Yeast), UniProt B9W6M3); experiment: blockers of CaCl2-induced CDRE-lacZ signaling – S. cerevisiae, luminescence, secondary, dose response (AID 2388); type: functional, cell-based;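 note: yeast reporter cells carrying a calcineurin-responsive lacZ construct stimulated with calcium chloride; luminescent beta-galactosidase reporter signal in whole cells rather than isolated phosphatase activity; potency for inhibition where a drop in reporter signal means calcineurin blockade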
Chain of Serine/threonine-protein phosphatase (B9W6M3 whole entry): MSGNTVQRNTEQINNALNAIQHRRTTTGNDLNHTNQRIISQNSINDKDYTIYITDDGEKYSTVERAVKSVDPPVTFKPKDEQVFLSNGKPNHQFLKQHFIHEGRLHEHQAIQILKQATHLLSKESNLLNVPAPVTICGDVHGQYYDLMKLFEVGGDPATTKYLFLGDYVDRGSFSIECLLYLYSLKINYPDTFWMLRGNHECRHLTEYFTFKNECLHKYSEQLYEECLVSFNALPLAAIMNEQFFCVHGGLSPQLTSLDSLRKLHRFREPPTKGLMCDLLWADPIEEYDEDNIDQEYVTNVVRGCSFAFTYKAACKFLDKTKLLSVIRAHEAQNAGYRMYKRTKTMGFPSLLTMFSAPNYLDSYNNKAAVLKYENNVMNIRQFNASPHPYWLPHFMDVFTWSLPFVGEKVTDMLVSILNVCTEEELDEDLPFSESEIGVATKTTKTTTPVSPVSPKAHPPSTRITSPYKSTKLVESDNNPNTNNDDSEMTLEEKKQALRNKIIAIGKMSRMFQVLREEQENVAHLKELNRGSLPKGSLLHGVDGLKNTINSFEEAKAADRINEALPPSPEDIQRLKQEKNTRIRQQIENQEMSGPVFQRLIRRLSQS

[8] = target: T1, Microphthalmia-associated transcription factor (Homo sapiens, UniProt O75030); experiment: reducers of TRPM1 reporter luminescence, concentration series – cell-based, SK-MEL-5, cherry-picked, set 3, MITF inhibitor project, dose response (AID 493073); type: functional;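 note: SK-MEL-5 melanoma cells with luciferase driven by the MITF target TRPM1 promoter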
T1 sequence (O75030 whole entry): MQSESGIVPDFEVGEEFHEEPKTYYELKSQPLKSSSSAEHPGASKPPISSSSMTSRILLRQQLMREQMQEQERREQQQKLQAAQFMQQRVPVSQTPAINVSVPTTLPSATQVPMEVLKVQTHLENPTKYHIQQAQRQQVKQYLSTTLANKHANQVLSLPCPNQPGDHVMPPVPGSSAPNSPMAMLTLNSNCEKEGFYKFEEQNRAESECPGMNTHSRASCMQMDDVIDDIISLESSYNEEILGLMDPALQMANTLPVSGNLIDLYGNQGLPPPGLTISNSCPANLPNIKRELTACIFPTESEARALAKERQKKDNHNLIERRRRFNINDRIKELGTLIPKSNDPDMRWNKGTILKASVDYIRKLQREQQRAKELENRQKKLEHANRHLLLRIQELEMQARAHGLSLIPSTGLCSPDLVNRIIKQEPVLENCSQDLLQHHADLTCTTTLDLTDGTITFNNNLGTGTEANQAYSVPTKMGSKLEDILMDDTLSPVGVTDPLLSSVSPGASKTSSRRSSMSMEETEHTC

[9] = tested on: HEK293; experiment: EBV LMP1 TES2 canonical NF-kB signalling blockers – cell-based, HEK293, luciferase, cherry-pick, dose response (AID 588343); type: functional; settings: Homo sapiens
[10] = target: Latent membrane protein 1 (Human herpesvirus 4 (strain B95-8), UniProt P03230); experiment: LMP1 TES1 pathway selectivity over dsRED control – imaging, HEK293T, dual-color eGFP/dsRED, cherry-picks, selectivity assay for LMP1 NF-kB inhibitor project, dose response (AID 588398); type: functional, cell-based
Chain of Latent membrane protein 1 (P03230 whole entry): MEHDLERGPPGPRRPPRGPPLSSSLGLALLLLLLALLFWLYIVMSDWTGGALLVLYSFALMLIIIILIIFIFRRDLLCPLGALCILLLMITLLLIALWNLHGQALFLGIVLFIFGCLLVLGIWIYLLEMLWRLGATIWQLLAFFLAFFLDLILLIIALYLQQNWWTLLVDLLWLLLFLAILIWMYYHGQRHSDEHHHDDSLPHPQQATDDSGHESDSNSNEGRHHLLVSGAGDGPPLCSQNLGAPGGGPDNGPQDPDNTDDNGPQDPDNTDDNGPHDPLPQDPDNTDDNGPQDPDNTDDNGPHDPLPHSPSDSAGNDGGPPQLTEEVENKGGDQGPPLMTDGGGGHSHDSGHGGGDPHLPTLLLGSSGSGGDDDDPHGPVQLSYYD

[11] = A cytotoxicity screen of small molecule inhibitors of the PhoP region in Salmonella typhi identified in the primary screen. [Related pubchem assays: 1850, 1864, 1985 ]; type: functional
[12] = target: T2, Sentrin-specific protease 6 (Homo sapiens, UniProt Q9GZR1); experiment: SAR Analysis of small molecule inhibitors of Sentrin-specific protease 6 (SENP6) using a Luminescent assay. [Related pubchem assays (depositor defined):AID2582, AID2599]; type: functional
T2 sequence (Q9GZR1 whole entry): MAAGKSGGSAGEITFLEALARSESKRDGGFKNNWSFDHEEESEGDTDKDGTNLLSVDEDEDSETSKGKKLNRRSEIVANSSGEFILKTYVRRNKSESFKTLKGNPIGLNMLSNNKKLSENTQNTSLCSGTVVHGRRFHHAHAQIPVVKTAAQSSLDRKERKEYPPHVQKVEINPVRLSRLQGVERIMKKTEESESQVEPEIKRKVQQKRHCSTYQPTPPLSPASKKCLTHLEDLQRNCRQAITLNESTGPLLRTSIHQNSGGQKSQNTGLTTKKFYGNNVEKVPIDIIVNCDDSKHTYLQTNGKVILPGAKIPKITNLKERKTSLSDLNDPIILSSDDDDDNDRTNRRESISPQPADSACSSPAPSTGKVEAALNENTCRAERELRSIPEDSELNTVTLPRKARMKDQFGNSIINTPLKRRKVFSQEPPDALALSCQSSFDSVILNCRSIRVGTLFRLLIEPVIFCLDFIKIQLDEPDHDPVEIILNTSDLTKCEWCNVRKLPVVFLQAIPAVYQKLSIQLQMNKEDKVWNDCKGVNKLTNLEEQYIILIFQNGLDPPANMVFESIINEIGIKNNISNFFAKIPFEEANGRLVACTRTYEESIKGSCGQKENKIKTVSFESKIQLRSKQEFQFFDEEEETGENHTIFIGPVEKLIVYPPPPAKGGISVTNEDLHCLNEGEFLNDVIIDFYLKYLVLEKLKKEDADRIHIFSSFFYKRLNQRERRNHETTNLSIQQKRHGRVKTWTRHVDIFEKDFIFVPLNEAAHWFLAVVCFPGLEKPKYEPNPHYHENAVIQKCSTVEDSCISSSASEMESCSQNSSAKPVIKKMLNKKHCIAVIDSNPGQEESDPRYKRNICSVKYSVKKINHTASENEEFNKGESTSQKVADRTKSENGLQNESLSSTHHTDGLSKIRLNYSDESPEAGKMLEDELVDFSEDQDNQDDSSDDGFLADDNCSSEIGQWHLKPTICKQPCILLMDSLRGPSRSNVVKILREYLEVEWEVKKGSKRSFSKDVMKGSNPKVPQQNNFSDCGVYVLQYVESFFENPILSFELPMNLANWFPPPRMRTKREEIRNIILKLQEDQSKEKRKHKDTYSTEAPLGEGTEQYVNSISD

[13] = target: T3, Sentrin-specific protease 8 (Homo sapiens, UniProt Q96LD8); experiment: inhibition of human SENP8 cleavage activity – biochemical, luminescence, SAR follow-up (AID 504501); type: functional
T3 sequence (Q96LD8 whole entry): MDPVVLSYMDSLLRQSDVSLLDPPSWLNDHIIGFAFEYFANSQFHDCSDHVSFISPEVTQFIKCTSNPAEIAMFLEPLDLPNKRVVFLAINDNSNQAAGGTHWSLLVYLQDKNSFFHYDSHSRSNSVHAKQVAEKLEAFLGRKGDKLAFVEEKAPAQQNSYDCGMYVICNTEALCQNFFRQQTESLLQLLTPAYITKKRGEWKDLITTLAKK

[14] = target: T4, Caspase-3 (Homo sapiens, UniProt P42574); experiment: SAR Analysis of small molecule inhibitors of Sentrin-specific proteases (SENPs) using a Caspase-3 Selectivity assay. [Related pubchem assays (depositor defined):AID2540, AID2599, AID434973, AID489001]; type: functional
T4 sequence (P42574 whole entry): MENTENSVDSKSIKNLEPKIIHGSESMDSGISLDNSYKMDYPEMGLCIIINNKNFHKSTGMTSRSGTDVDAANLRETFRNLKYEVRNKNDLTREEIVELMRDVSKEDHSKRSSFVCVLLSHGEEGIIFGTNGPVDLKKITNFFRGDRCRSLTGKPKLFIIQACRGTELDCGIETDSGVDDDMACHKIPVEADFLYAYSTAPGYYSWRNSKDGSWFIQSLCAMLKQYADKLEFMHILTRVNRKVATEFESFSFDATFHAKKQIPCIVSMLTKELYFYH

[15] = target: T5, Sentrin-specific protease 7 (Homo sapiens, UniProt Q9BQF6); experiment: inhibition of human SENP7 cleavage activity – biochemical, luminescence, SAR follow-up (AID 504497); type: functional
T5 sequence (Q9BQF6 whole entry): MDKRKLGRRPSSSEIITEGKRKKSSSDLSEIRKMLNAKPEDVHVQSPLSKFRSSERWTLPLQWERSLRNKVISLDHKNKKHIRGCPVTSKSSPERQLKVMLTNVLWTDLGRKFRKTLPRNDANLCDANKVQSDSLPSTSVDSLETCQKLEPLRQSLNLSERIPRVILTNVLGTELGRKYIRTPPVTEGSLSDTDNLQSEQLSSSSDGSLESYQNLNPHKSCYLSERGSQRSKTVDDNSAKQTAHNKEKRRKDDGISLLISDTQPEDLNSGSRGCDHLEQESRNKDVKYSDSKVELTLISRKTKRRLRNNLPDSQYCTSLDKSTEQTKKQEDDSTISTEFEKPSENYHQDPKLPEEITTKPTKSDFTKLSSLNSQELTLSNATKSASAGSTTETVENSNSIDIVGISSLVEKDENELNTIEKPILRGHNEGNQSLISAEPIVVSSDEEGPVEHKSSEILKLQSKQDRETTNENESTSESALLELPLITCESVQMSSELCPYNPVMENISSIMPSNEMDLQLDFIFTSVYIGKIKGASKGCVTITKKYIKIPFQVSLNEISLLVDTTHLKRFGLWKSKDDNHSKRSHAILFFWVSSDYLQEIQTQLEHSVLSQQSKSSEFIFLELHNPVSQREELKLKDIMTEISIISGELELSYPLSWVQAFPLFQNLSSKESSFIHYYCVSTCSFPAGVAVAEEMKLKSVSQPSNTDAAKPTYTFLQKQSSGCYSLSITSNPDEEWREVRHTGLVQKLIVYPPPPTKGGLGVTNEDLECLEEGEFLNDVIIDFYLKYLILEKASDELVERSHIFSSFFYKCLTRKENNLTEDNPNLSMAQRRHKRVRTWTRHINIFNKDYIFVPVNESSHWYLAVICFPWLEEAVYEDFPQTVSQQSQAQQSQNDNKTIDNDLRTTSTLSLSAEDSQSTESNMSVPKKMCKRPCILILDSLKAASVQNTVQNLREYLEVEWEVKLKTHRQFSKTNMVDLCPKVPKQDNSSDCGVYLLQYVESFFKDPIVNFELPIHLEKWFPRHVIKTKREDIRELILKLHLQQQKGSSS

[16] = tested on: BJ; experiment: growth inhibition of engineered Ras-driven BJ cells – cell-based, alamar blue fluorescence, cherrypicked samples, dose response (AID 2631); type: functional; settings: Homo sapiens;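 note: confirmatory dose-response assay in RAS-dependent BJ fibroblasts engineered with TERT, LT and ST, with cytotoxicity read by fluorescence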
[17] = DRD fibroblast viability loss – cell-based, non-viral oncogenic, luminescence, dose response (AID 1934); type: functional; settings: Homo sapiens
[18] = Luminescence Cell-Based Dose Response HTS to Identify Inhibitors of 5'UTR Stem-Loop Driven Prion Protein mRNA Translation in H4 Neuroglioblastoma Cells. [Related pubchem assays: 1827 (Project Summary), 1813 (Primary HTS)]; type: functional
[19] = MIN6 cell viability loss – mouse insulinoma, cytotoxicity control, dose response (AID 2122); type: functional;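 note: confirmatory high-throughput counterscreen run to flag cytotoxic compounds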
[20] = tested on: Streptococcus; experiment: GAS UMAA2166 growth inhibition – luminescence, BacTiterGlo, counter-screen for streptokinase expression inhibitor project, dose response (AID 1915); type: functional, organism-based;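 note: potency for reduction of bacterial viability or growth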
[21] = cells; type: functional, cell-based
[22] = tested on: Streptococcus sp. 'group A'; experiment: Streptococcus pyogenes SK(-)GAS viability under kanamycin – luminescence, BacTiterGlo, confirmation, counter-screen for streptokinase expression inhibitor project, dose response (AID 1900); type: functional, organism-based
[23] = tested on: BJ; experiment: cells; type: functional, cell-based; settings: Homo sapiens
[24] = tested on: BJ; experiment: BJ-TERT-LT-ST fibroblast viability loss – cell-based, RAS-independent, luminescence, dose response (AID 1935); type: functional; settings: Homo sapiens;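 note: BJ fibroblasts immortalized with TERT plus LT and ST oncogenes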
[25] = tested on: BJ; experiment: BJ-TERT fibroblast viability loss – cell-based, RAS-independent, luminescence, dose response (AID 1933); type: functional; settings: Homo sapiens
[26] = tested on: Vero; experiment: mammalian cell viability reduction – secondary assay, cytotoxicity control for West Nile virus antiviral project, dose response (AID 1650); type: functional; settings: Chlorocebus sabaeus
[27] = tested on: Vero; experiment: cells; type: functional; settings: Chlorocebus sabaeus
[28] = cells; type: functional, cell-based; remark: listed apart in the source
[29] = luciferase reporter signal suppression in cells – H4 neuroglioma cells, luminescence, dose response (AID 1990); type: functional, cell-based
[30] = alpha-synuclein stem-loop luciferase translation blockers – H4 neuroglioma cells, luminescence, confirmation (AID 1988); type: functional, cell-based
[31] = decrease of insulin promoter-GFP reporter – imaging, high-content screening, mouse beta cells (AID 1628); type: functional; settings: MIN6

O=C(/C=C(O)/C=C/c1ccc(O)cc1)/C=C/c1ccc(O)cc1
active: IC50 [1] 5.13 µM
inactive: IC50 [2] 40 µM

CCOC(=O)N1C(=O)C2(CCCCC2)N(c2ccccc2Cl)C1=S
active: EC50 [3] 39.7 µM | EC50 [4] 23.1 µM | EC50 [5] < 0.03 µM | IC50 [6] 5.92 µM
inactive: EC50 [7] > 180 µM

Cc1cc(NCCCn2ccnc2)n2ncc(-c3ccccc3)c2n1
active: AC50 [8] 11 µM | AC50 [9] 2.56 µM | AC50 [10] 206 µM | EC50 [11] > 50 µM

CN(C)CCN(C(=O)c1ccc(Cl)s1)c1nc2ccc(S(C)(=O)=O)cc2s1
inactive: IC50 [12] > 99 µM | IC50 [13] > 99 µM | IC50 [14] > 99 µM | IC50 [15] > 99 µM

CCN(CC)c1ccc(/C=N/Nc2nc3ccccc3[nH]2)c(O)c1
active: EC50 [18] 8.71 µM | IC50 [19] 2.51 µM | EC50 [20] 7.8 µM | EC50 [21] 2.56 µM | EC50 [22] 4.47 µM | EC50 [23] 2.15 µM | EC50 [5] 1.42 µM | AC50 [10] 17.4 µM | EC50 [25] 1.22 µM | CC50 [26] 2.03 µM | CC50 [27] 1.59 µM | EC50 [28] 115 µM | EC50 [29] 6.26 µM | EC50 [30] 2.64 µM | IC50 [31] 2.45 µM
inconclusive: EC50 [3] 22.6 µM | EC50 [16] 0.571 µM | EC50 [17] 1.37 µM | EC50 [24] 1.37 µM
